Read-outs that look alike come from different tables or passages of the source. A value given as a limit tells only on which side of the number the result lay.

Data set [1] deals with SFTSV. In words: microbe, parasite or virus in culture. It is filed as cell-based, severe fever with thrombocytopenia syndrome virus (SFTSV). To be noted: for EC50: Severe fever with thrombocytopenia syndrome virus, Vero, 72 h.
Data set [2] concerns Vero cells. The following applies: African green monkey.
The nature of data set [3]: in vitro. To be noted: African green monkey.
Data set [4] concerns SFTSV. To be noted: cited from earlier work.
Setting [5] is: read-out: EC50: 50% effective concentration (concentration of a drug suppressing SFTSV proliferation by 50%).

On to `CCN(CC)Cc1cc(Nc2ccnc3cc(Cl)ccc23)ccc1O` [Compound 1, Amodiaquine, reference compound], for which the “anti-SFTSV effect (in words)” value in data set [1] is on record as “have an anti-SFTSV effect”. The EC50 in data set [1] (setting [5]) came out at 19.1 ± 5.1 µM. In addition, the CC50 in data set [2] was > 100 µM.

With `CCN(CC)Cc1cc(Nc2ccnc3cc(F)ccc23)ccc1O` [Compound 2, 4-(7-fluoroquinolin-4-ylamino)-2-diethylaminomethylphenol], the EC50 in data set [1] (setting [5]) is 36.6 ± 9.3 µM. Besides, the CC50 in data set [2] is > 100 µM.

The melting point is the temperature of the solid-liquid transition. `CCN(CC)Cc1cc(Nc2ccnc3cc(Br)ccc23)ccc1O` [Compound 3, 4-(7-bromoquinolin-4-ylamino)-2-diethylaminomethylphenol] yielded a melting point of 194.3 to 195.8 °C. The EC50 in data set [1] (setting [5]) was found to be 31.1 ± 16.8 µM. In addition, in data set [2], the CC50 is > 100 µM.

With `CCN(CC)Cc1cc(Nc2ccnc3cc(I)ccc23)ccc1O` [Compound 4, 4-(7-iodoquinolin-4-ylamino)-2-diethylaminomethylphenol], the melting point is 189.7 to 190.4 °C. In data set [1] (setting [5]), the EC50 came out at 15.6 ± 4.9 µM. In addition, in data set [2], the CC50 is > 100 µM.

As to `Oc1ccc(Nc2ccnc3cc(Cl)ccc23)cc1CN1CCCC1` [Compound 5, 4-(7-chloroquinolin-4-ylamino)-2-(1-pyrrolidinylmethyl)phenol], in data set [1] (setting [5]), the EC50 is 14.6 µM. The CC50 in data set [3] was 41.1 µM.

Consider `CCCN(CCC)Cc1cc(Nc2ccnc3cc(Cl)ccc23)ccc1O` [Compound 6, 4-(7-chloroquinolin-4-ylamino)-2-dipropylaminomethylphenol], for which the melting point was 163.2 to 164.3 °C. Also, in data set [1] (setting [5]), the EC50 came out at 58.7 µM. For the same compound, the CC50 in data set [3] is > 100 µM.

Turning to `CCCCN(C)Cc1cc(Nc2ccnc3cc(I)ccc23)ccc1O` [Compound 12, 4-(7-iodoquinolin-4-ylamino)-2-butylmethylaminomethylphenol], the EC50 in data set [1] is 6.2 µM. Besides, the CC50 in data set [3] was > 50 µM.

Compound `CCCCCN(C)Cc1cc(Nc2ccnc3cc(I)ccc23)ccc1O` [Compound 13, 4-(7-iodoquinolin-4-ylamino)-2-methylpentylaminomethylphenol] gave an EC50 in data set [1] of 3.4 µM. The CC50 in data set [3] is > 50 µM.

In data set [1], `CCCCCCN(C)Cc1cc(Nc2ccnc3cc(I)ccc23)ccc1O` [Compound 14, 4-(7-iodoquinolin-4-ylamino)-2-hexylmethylaminomethylphenol] showed an EC50 of 8.7 µM. The CC50 in data set [3] was > 50 µM.

Take `NC(=O)c1nc(F)c[nH]c1=O` [favipiravir, reference compound]: the “anti-SFTSV effect (in words)” value in data set [1] is on record as “have an anti-SFTSV effect”. In data set [4], the “anti-SFTSV effect already reported” value is “already reported to have an anti-SFTSV effect”.

`NC(=O)c1ncn([C@@H]2O[C@H](CO)[C@@H](O)[C@H]2O)n1` [ribavirin, reference compound]: the “anti-SFTSV effect (in words)” value in data set [1] was “have an anti-SFTSV effect”. In addition, in data set [4], the “anti-SFTSV effect already reported” value is listed as “already reported to have an anti-SFTSV effect”.

The record behind these values is patent US11001557B2 (priority 2017, dated 2021).
